17 compounds from US8975415B2, “Chromane compounds” (CoMentis, Inc., priority 2012, dated 2015) can be followed below.

For data set [1], the target named is T1, BACE1 (Homo sapiens (Human), UniProt P56817). The data set can be described thus: Measurement of BACE1 inhibition by fluorescence resonance energy transfer (FRET), MCA substrate. As to conditions: for IC50: read-out: Test Example 1 IC50, MCA-SEVNLDAEFK(DNP)-NH2 substrate, pH 4.4.
Target sequence in this assay (P56817 75-416): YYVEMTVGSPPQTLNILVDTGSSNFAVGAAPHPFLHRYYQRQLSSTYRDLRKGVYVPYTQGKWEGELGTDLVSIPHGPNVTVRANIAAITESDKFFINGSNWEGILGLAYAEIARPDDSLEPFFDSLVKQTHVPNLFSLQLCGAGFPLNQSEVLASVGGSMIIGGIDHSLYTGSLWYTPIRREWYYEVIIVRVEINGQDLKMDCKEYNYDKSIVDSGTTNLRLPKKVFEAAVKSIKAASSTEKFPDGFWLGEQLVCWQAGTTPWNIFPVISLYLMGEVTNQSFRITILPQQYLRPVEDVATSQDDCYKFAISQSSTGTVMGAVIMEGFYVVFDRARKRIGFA
Data set [2] concerns the target T1, BACE1. The experiment in a line: Measurement of Aβ production inhibition in cell (SK-N-BE(2) neuroblastoma cells, Aβ40 ELISA). As to conditions: SK-N-BE(2) cells, 6 hours. (An ELISA detects its analyte on a solid surface through an enzyme-linked reagent.)
Target sequence in this assay (P56817 46-501): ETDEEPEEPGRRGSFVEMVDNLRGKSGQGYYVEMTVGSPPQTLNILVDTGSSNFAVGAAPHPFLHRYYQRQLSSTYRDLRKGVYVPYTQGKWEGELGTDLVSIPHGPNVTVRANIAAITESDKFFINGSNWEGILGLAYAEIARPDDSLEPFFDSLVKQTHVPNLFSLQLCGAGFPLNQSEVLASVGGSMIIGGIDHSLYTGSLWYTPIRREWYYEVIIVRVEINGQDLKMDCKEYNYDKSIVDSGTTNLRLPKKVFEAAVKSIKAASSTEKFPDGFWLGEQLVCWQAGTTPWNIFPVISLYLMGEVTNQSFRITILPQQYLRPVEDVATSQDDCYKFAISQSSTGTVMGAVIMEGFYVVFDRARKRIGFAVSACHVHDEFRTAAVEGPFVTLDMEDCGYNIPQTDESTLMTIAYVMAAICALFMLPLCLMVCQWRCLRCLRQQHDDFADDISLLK
In the next data set the target is hERG potassium channel (Homo sapiens (Human), UniProt Q12809). The data set can be described thus: hERG inhibition, automated planar patch-clamp in hERG-expressing CHO cells. The note with it: for selectivity ratio: human, CHO-K1 cells stably expressing hERG, pH 7.4. For orientation: Block of hERG is tested as a sign of cardiac risk.
hERG potassium channel, sequence (Q12809 whole entry): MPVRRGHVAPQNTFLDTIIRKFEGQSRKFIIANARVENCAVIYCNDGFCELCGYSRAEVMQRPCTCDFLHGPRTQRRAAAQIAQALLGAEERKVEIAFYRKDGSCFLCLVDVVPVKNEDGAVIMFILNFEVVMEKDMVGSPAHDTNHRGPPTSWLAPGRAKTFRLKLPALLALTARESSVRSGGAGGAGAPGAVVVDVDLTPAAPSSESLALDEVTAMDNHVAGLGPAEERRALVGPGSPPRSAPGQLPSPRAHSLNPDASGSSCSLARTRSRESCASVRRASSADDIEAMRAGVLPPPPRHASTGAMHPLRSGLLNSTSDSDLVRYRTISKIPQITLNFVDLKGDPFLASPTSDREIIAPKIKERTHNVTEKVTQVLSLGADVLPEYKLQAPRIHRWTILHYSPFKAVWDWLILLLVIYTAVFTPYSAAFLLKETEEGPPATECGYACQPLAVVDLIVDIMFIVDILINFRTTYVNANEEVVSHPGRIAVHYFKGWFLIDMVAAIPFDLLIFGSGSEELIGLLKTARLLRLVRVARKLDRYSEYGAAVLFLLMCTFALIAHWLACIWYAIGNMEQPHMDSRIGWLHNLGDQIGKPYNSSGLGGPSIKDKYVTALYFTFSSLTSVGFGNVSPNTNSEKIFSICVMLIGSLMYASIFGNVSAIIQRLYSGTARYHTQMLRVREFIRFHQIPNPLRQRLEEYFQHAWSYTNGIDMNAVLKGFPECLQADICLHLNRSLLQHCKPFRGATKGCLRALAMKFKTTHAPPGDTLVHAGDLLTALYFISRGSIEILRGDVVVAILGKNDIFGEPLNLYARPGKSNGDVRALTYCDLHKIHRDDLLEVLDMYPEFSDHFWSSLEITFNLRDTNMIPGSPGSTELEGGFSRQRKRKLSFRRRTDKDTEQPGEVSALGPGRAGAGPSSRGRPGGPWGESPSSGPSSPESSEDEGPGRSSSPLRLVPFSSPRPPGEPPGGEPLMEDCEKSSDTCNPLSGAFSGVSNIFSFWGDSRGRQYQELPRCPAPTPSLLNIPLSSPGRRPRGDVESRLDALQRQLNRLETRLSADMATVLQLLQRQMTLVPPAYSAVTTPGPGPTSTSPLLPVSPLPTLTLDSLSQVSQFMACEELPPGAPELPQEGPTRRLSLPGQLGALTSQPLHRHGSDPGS
The mark [3] stands for this setting: read-out: Test Example 1 BACE1 MCA Ki, FRET, MCA substrate.
[4] abbreviates: Test Example 3 IC50, Aβ40 production.
The mark [5] stands for this setting: read-out: Test Example 5 hERG IC50, whole-cell patch clamp, room temperature.

Read-outs that look alike come from different tables or passages of the source. Where only a bound is given, the exact number is not on record here.

Usually Ki stands for the dissociation constant of the complex between target and ligand, obtained from inhibition or displacement. Broadly, the IC50 is the concentration that inhibits the measured activity by half.

Turning to `CC1(C)Oc2ccc(NC(=O)c3ccc(F)cn3)cc2[C@@]2(COC(N)=N2)C12CC2` [Example 222], the Ki on BACE1 [1] (setting [3]) stood at 0.0915 µM. Moreover, the IC50 is 0.138 µM at BACE1 [1] (FRET), 0.00062 µM against BACE1 [2] (setting [4]) and > 10 µM at hERG potassium channel (setting [5]). For the same compound, at hERG potassium channel, the selectivity ratio was > 109.

Take `NC1=NC2(CO1)c1cc(-c3cncnc3)ccc1OC(Cc1ccccc1)C21COC1` (stereo not drawn) [RP 202]: on BACE1 [1] (setting [3]), the Ki was 0.113 µM. In addition, the IC50 amounted to 0.145 µM on BACE1 [1] (FRET); 0.026 µM on BACE1 [2] (read-out: Test Example 3 IC50, Aβ40 production); 7.73 µM on hERG potassium channel (setting [5]).

In the case of `CCC1Oc2ccc(-c3cncnc3)cc2C2(COC(N)=N2)C12COC2` (stereo not drawn) [RP 84], the IC50 on BACE1 [1] (FRET) is 0.735 µM; against BACE1 [2] (setting [4]), 0.41 µM; on hERG potassium channel (setting [5]), > 10 µM.

Regarding `Cc1cncc(-c2ccc3c(c2)C2(COC(N)=N2)C2(COC2)C2(CCC2)O3)c1` (stereo not drawn) [RP 75, 6′-(5-methylpyridin-3-yl)trispiro[cyclobutane-1,2′-chromene-4′,4″-[1,3]oxazole-3′,3′″-oxetan]-2″-amine], the figures for the IC50 on BACE1 [1] (FRET), on BACE1 [2] (setting [4]) and on hERG potassium channel (setting [5]) were 3.67 µM, 1.1 µM and > 10 µM, respectively.

`CC#Cc1cncc(-c2ccc3c(c2)C2(CSC(N)=N2)C2(COC2)CO3)c1` (stereo not drawn) [RP 68]: the IC50 at BACE1 [1] (FRET) is 0.345 µM; on BACE1 [2] (setting [4]) it was 0.5 µM; on hERG potassium channel (setting [5]), 6.05 µM.

For the compound `NC1=NC2(CO1)c1cc(Br)ccc1OC(CC1CC1)C21COC1` (single isomer, unassigned) [RP 16b], the IC50 is 4.57 µM on BACE1 [1] (FRET), 4.8 µM against BACE1 [2] (setting [4]) and > 10 µM at hERG potassium channel (setting [5]).

With `NC1=NC2(CO1)c1cc(-c3cc(Cl)cnc3F)ccc1OCC21COC1` (stereo not drawn) [RP 34], the IC50 at BACE1 [1] (FRET) was 1.24 µM; against BACE1 [2] (setting [4]), 0.26 µM; on hERG potassium channel (setting [5]) it was > 10 µM.

`NC1=NC2(CO1)c1cc(-c3cncnc3)ccc1OCC21CCC1` (stereo not drawn) [RP 101]: the IC50 on BACE1 [1] (FRET) came out at 7.65 µM; at hERG potassium channel (setting [5]), 5.28 µM.

Take `CC1(C)Oc2ccc(Br)cc2C2(CSC(N)=N2)C12COC2` (stereo not drawn) [RP 42]: the IC50 at BACE1 [1] (FRET) was 16.1 µM; against BACE1 [2] (setting [4]), 5.9 µM; on hERG potassium channel (setting [5]), > 10 µM.

`NC1=NC2(c3cc(-c4cncnc4)ccc3OCC23CC3)C(F)(F)CS1` (stereo not drawn) [RP 198, 5″,5″-difluoro-6′-(pyrimidin-5-yl)-5″,6″-dihydrodispiro[cyclopropane-1,3′-chromene-4′,4″-[1,3]thiazin]-2″-amine]: the IC50 at BACE1 [1] (FRET) was 14.9 µM; on hERG potassium channel (setting [5]), > 1 µM.

As to `N#Cc1cnc(C(=O)Nc2ccc3c(c2)C2(COC(N)=N2)C2(CC2)CO3)c(Cl)c1` (stereo not drawn) [RP 192], the Ki on BACE1 [1] (setting [3]) was 0.28 µM. The IC50 on BACE1 [1] (FRET) was 0.318 µM; on hERG potassium channel (setting [5]) it was > 10 µM.

Take `CC1(C)Cc2ccc(NC(=O)c3ccc(Cl)cn3)cc2C2(COC(N)=N2)C1` (racemic) [WO2011/123674 Example 89, reference compound]: the Ki on BACE1 [1] was determined as 0.241 µM. For the same compound, at hERG potassium channel, the IC50 worked out at 0.44 µM and the selectivity ratio was 1.8.

For the compound `Cc1cnc(C(=O)Nc2ccc3c(c2)C2(COC(N)=N2)CC(C)(C)C3)cn1` (racemic) [WO2011/123674 Example 98, reference compound], affinity on BACE1 [1] was put at a Ki of 4.09 µM. At hERG potassium channel, inhibition was half-maximal at 9.46 µM (IC50) and the selectivity ratio was determined as 2.3.

As for `NC1=NC2(CO1)c1cc(Br)ccc1OC1(CCCC1)C21COC1` (stereo not drawn) [RP 10], the IC50 at BACE1 [1] (FRET) was 7.21 µM; on hERG potassium channel (setting [5]), > 10 µM.

For `NC1=NC2(CO1)c1cc(-c3cnc4[nH]ccc4c3)ccc1OCC21CC1` (stereo not drawn) [RP 61, 6′-(1H-pyrrolo[2,3-b]pyridin-5-yl)dispiro[cyclopropane-1,3′-chromene-4′,4″-[1,3]oxazol]-2″-amine], the IC50 against BACE1 [2] (setting [4]) came to 0.35 µM; on hERG potassium channel (setting [5]), 9.22 µM.

For `Cc1cnnc(-c2ccc3c(c2)C2(COC(N)=N2)C2(COC2)C2(CCC2)O3)c1` (stereo not drawn) [RP 76], the values for the IC50 on BACE1 [1] (FRET) and on hERG potassium channel (setting [5]) were 13.4 µM and > 10 µM, respectively.

Regarding `CC(C)CC1Oc2ccc(-c3cncnc3)cc2C2(COC(N)=N2)C12COC2` (stereo not drawn) [RP 90], the IC50 on BACE1 [1] (FRET) was 0.901 µM; on hERG potassium channel (setting [5]), > 10 µM.
